Data published in US12458605B2, “Lipid nanoparticle” (National University Corporation Hokkaido University, priority 2020, dated 2025).
Values joined by “and” are separate entries in the source; they are usually repeats but may differ in a detail not shown here. Equal values may be shown once.

Experiments:
[1] = system: F7; assay: In vivo F7 knockdown, plasma F7 enzyme activity (BIOPHEN FVII), Balb/c mice; conditions: for F7 enzyme activity (%): untreated mice as 100%
Procedure: Then, each prepared F7siRNA-loaded lipid nanoparticles were administered to Balb/c mice (Charles River Laboratories Japan, Inc., 5 weeks old, female) and in vivo F7 knockdown activity was examined. Specifically, BALB/c mice were intravenously administered F7siRNA-loaded lipid nanoparticles comprising the lipids described in Table 9 at 0.025 mg siRNA/kg and F7siRNA-loaded lipid nanoparticles comprising the lipids described in Tables 10 and 11 at 0.025 mg siRNA/kg, and the plasma F7 enzyme activity at 24 hours later was measured using BIOPHEN FVII (Biophen, A221304). Relative plasma F7 enzyme activity (%) of mice administered each F7siRNA-loaded lipid nanoparticles was calculated using plasma F7 enzyme activity of untreated mice as 100%. Furthermore, the ratio was calculated using the relative plasma F7 enzyme activity (%) of mice administered MC3-comprising F7siRNA-loaded lipid nanoparticles as 1. The results of measurement of CL4F6 derivative nanoparticles are shown in Tables 9 and 10, and results of measurement of CL15F6 derivative nanoparticles in Table 11.

[2] = Storage stability of FlucmRNA-loaded LNP at −80, 5, 25 and 40° C.; type: physicochemical; conditions: for period for which quality remained good, −80° C.: maximum storage period 1 week; for period for which quality remained good, 5° C. / period for which quality remained good, 25° C. / period for which quality remained good, 40° C. (weeks) / period for which quality remained good, 40° C. (days): maximum storage period 5 weeks
Procedure: Lipid nanoparticles were allowed to stand at each temperature of −80° C., 5° C., 25° C., and 40° C., and after keeping for each period of time, average particle size, PDI, and nucleic acid encapsulation rate were measured. Lipid nanoparticles which satisfy following all three conditions were defined that the quality was remained well: the average particle size is maintained within +/−20 nm based on the date of LNP preparation; PDI remains high uniformity with a value of 0.2 or less; and the nucleic acid encapsulation rate is also maintained at 80% or more. As a result of measuring average particle size, PDI, and nucleic acid encapsulation rate after each FlucmRNA-loaded lipid nanoparticle was allowed to stand at −80° C., 5° C., 25° C., and 40° C. respectively and kept for each period of time, periods of time defined as the quality of the lipid nanoparticles was remained well are shown in Tables 13 and 14. The lipid nanoparticles which remain in good quality with standing at 5° C. for one week or more can be evaluated as having excellent stability.

[3] = system: spleen; assay: In vivo Fluc activity of FlucmRNA-loaded LNP by in vivo imaging, spleen; conditions: Balb/c mice, 6 hours; for Fluc Activity in spleen: FlucmRNA-loaded LNP i.v. 0.1 mg mRNA/kg; for Fluc activity in the spleen, compared with CL4F6: 0.1 mg mRNA/kg, versus LNP comprising CL4F6 (Tables 5 and 6)
Procedure: (§1) Then, each prepared FlucmRNA-loaded lipid nanoparticles were administered to Balb/c mice (Charles River Laboratories Japan, Inc., 7 weeks old, female) and in vivo gene expression activity was examined. Specifically, each FlucmRNA-loaded lipid nanoparticles were intravenously administered to Balb/c mice at 0.1 mg mRNA/kg, and Fluc activities in the liver and spleen at 6 hours later were measured. Fluc activity was measured by in vivo imaging system (Perkin Elmer, IVIS200) after administration of VivoGlo Luciferin, In Vivo Grade (Promega, P1041) dissolved with PBS to 15 mg/mL, via tail vein at a dose of 1.5 mg per mouse. The unit of Fluc activity is the emission intensity per unit area (Avg Radiance [p/s/cm2/sr]) at the maximum emission wavelength of about 560 nm. The results of measurement of the Fluc activity (Avg Radiance [p/s/cm2/sr]) in the liver and spleen of mice administered each FlucmRNA-loaded lipid nanoparticles are shown in Tables 5-7.

[4] = system: liver; assay: In vivo Fluc activity of FlucmRNA-loaded LNP by in vivo imaging, liver; conditions: Balb/c mice, 6 hours; for Fluc Activity in liver: FlucmRNA-loaded LNP i.v. 0.1 mg mRNA/kg
Procedure: as §1

[5] = Average particle size (ζ-Average) and PDI by dynamic light scattering (Zetasizer Nano ZSP); type: physicochemical
Procedure: The average particle size (ζ-Average) and PDI in PBS(−) of lipid nanoparticles were measured using “Zetasizer Nano ZSP”, an analyzer utilizing dynamic light scattering (manufactured by Malvern).
Measurement of average particle size and PDI of the lipid nanoparticles were carried out with the same method as the measurement of average particle size of mRNA-LNP.
The average particle size (ζ-Average) and PDI in PBS (−) of lipid nanoparticles were measured using “Zetasizer Nano ZSP”, an analyzer utilizing dynamic light scattering (manufactured by Malvern).

[6] = siRNA/mRNA encapsulation rate by Ribogreen reagent (section IV); type: physicochemical; conditions: for % siRNA encapsulation: F7siRNA-loaded LNP, 50:10:38.5:1.5, N/P ratio 6; for % mRNA encapsulation: FlucmRNA-loaded LNP, 50:10:38.5:1.5
Procedure: The encapsulation rates of siRNA and mRNA of lipid nanoparticles were measured with Ribogreen reagent. A solution diluted with TE buffer solution was arranged so that lipid nanoparticle concentration as nucleic acid concentration to be 8 μg/mL, as a solution for measuring nanoparticle surface nucleic acid concentration. In addition, a solution for measuring total nucleic acid concentration was arranged so that lipid nanoparticle concentration as nucleic acid concentration to be 1.2 μg/mL, which is 1% (w/w) concentration of X-triton100, by adding X-triton100. For 100 μL of each solution, 100 μL of Ribogreen (registered trademark) reagent (Quant-iT™ RiboGreen™ RNA Reagent, manufactured by Thermofisher Scientific) was mixed well in the wells of 96-well microplate (black, made of polystyrene, flat bottom, manufactured by Corning), and the fluorescence intensity at an excitation wavelength of 485 nm and a measurement wavelength of 528 nm was measured with a microplate reader. Nucleic acid concentration was calculated by calibration curve created by measuring the fluorescence intensity of nucleic acid solution containing 1% X-triton100 (nucleic acid concentration: 0-2.5 μg/mL) as same as aforementioned. Nucleic acid encapsulation rate of each lipid nanoparticle was calculated by the following formula: Encapsulation rate %=(nucleic acid concentration in solution for measuring total nucleic acid concentration (μg/mL)−nucleic acid concentration in solution for measuring nanoparticle surface nucleic acid concentration (μg/mL))/nucleic acid concentration in solution for measuring total nucleic acid concentration (μg/mL)×100. <Results>
The encapsulation rate of mRNA of lipid nanoparticles was measured using Ribogreen (manufactured by life technologies).

[7] = i.v. 0.025 mg siRNA/kg, plasma at 24 hours
[8] = F7siRNA-loaded LNP, 50:10:38.5:1.5, N/P ratio 6
[9] = FlucmRNA-loaded LNP, 50:10:38.5:1.5
[10] = FlucmRNA-loaded LNP, lipid:DSPC:cholesterol:DMG-PEG2K 50:10:38.5:1.5

| Structure (SMILES) | F7 enzyme activity (%) [1, 7] [%] | period for which quality remained good, −80° C. [2] [week] | period for which quality remained good, 5° C. [2] | period for which quality remained good, 25° C. [2] | period for which quality remained good, 40° C. (weeks) [2] | Fluc Activity in spleen [3] | Fluc activity in the liver, compared with CL4F6 ([4]; 0.1 mg mRNA/kg, versus LNP comprising CL4F6 (Tables 5 and 6)) | Fluc Activity in liver [4] | PDI [5, 8] | ζ-Average (nm) [5, 8] | PDI [5, 9] | ζ-Average (nm) [5, 10] [nm] | % siRNA encapsulation [6] | % mRNA encapsulation [6] [%] | Fluc activity in the spleen, compared with CL4F6 [3] | knockdown activity, compared with MC3 ([1]; F7siRNA-loaded LNP, versus LNP comprising MC3) | F7 enzyme activity (Ratio using MC3 as 1) ([1]; i.v. 0.025 mg siRNA/kg, plasma at 24 hours, relative plasma F7 activity of MC3 LNP as 1) | period for which quality remained good, 40° C. (days) [2] [day days] |
| --- | --- | --- | --- | --- | --- | --- | --- | --- | --- | --- | --- | --- | --- | --- | --- | --- | --- | --- |
| CCCCCCCCCC(CCCCCC)C(=O)OCCCCCCC(O)(CCCCCCOC(=O)C(CCCCCC)CCCCCCCCC)CCCCN(CCC)CCC (centres unmarked) [CL4F 11-6] | 6 | 1 | 5 weeks | 5 weeks | 5 weeks | 2.54E+06 Avg Radiance [p/s/cm2/sr] | higher Fluc activity | 1.38E+08 Avg Radiance [p/s/cm2/sr] | 0.034 | 92.98 nm | 0.020 | 84.50 | 99.9% | 99.8 |  |  |  |  |
| CCCCCCCCCC(CCCCCCC)C(=O)OCCCCCCC(O)(CCCCCCOC(=O)C(CCCCCCC)CCCCCCCCC)CCCCN(CCC)CCC (centres unmarked) [CL4F 11-7] | 14.1 | 1 | 5 weeks | 5 weeks | 5 weeks | 2.03E+06 Avg Radiance [p/s/cm2/sr] |  | 1.23E+08 Avg Radiance [p/s/cm2/sr] | 0.019 | 94.76 nm | 0.021 | 79.45 | 99.8% | 99.7 |  |  |  |  |
| CCCCCCCCCC(CCCCCCCCC)C(=O)OCCCCCCC(O)(CCCCCCOC(=O)C(CCCCCCCCC)CCCCCCCCC)CCCCN(CCC)CCC [CL4F 11-9] | 47.7 | 1 | 5 weeks | 5 weeks | 5 weeks | 1.19E+06 Avg Radiance [p/s/cm2/sr] |  | 6.86E+07 Avg Radiance [p/s/cm2/sr] | 0.009 | 90.93 nm | 0.014 | 81.13 | 100.1% | 99.8 |  |  |  |  |
| CCCCCCCCCCC(CCCC)C(=O)OCCCCCCC(O)(CCCCCCOC(=O)C(CCCC)CCCCCCCCCC)CCCCN(CCC)CCC (centres unmarked) [CL4F 12-4] | 5 | 1 | 5 weeks | 5 weeks | 1 week weeks | 3.19E+06 Avg Radiance [p/s/cm2/sr] |  | 7.70E+07 Avg Radiance [p/s/cm2/sr] | 0.011 | 94.55 nm | 0.015 | 84.57 | 100.1% | 99.0 | higher Fluc activity |  |  |  |
| CCCCCCCCCCC(CCCCCC)C(=O)OCCCCCCC(O)(CCCCCCOC(=O)C(CCCCCC)CCCCCCCCCC)CCCCN(CCC)CCC (centres unmarked) [CL4F 12-6] | 6 | 1 | 5 weeks | 5 weeks | 5 weeks | 1.72E+06 Avg Radiance [p/s/cm2/sr] |  | 5.86E+07 Avg Radiance [p/s/cm2/sr] | 0.012 and 0.008 | 92.28 nm and 94.26 nm | 0.017 | 82.84 | 99.3% and 99.6% | 99.7 |  | higher knockdown activity | 0.18 |  |
| CCCCCCCCCCC(CCCCCCCCCC)C(=O)OCCCCCCC(O)(CCCCCCOC(=O)C(CCCCCCCCCC)CCCCCCCCCC)CCCCN(CCC)CCC [CL4F 12-10] | 80.6 | 1 | 5 weeks | 5 weeks | 5 weeks | 2.77E+05 Avg Radiance [p/s/cm2/sr] |  | 3.09E+07 Avg Radiance [p/s/cm2/sr] | 0.015 | 85.62 nm | 0.019 | 75.85 | 99.2% | 99.6 |  |  |  |  |
| CCCCCCCCCCCC(CCC)C(=O)OCCCCCCC(O)(CCCCCCOC(=O)C(CCC)CCCCCCCCCCC)CCCCN(CCC)CCC (centres unmarked) [CL4F 13-3] | 8.4 | 0 | 0 week weeks | 0 week weeks |  | 7.30E+06 Avg Radiance [p/s/cm2/sr] |  | 7.34E+07 Avg Radiance [p/s/cm2/sr] | 0.023 | 92.25 nm | 0.044 | 83.05 | 99.7% | 96.3 | higher Fluc activity |  |  | 0 |
| CCCCCCCCCCCCC(CC)C(=O)OCCCCCCC(O)(CCCCCCOC(=O)C(CC)CCCCCCCCCCCC)CCCCN(CCC)CCC (centres unmarked) [CL4F 14-2] | 7.9 | 0 | 0 week weeks | 0 week weeks |  | 3.66E+06 Avg Radiance [p/s/cm2/sr] |  | 4.08E+07 Avg Radiance [p/s/cm2/sr] | 0.076 | 80.87 nm | 0.078 | 74.02 | 98.0% | 94.0 | higher Fluc activity |  |  | 0 |
